Measured values taken from US10716770B2, “Nicotinic receptor non-competitive antagonists” (Catalyst Biosciences, Inc., priority 2010, dated 2020).
Read-outs that look alike come from different tables or passages of the source.

Experiments:
[1] = molecular target: T1, human α4β2 (Homo sapiens, UniProt P17787+P43681); assay: Calcium flux functional assay, inhibition of nicotine response in SH-EP1-human α4β2 cells; type: cell-based; details: nicotine 1 μM
T1 construct: host or cells: SH-EP1
Protocol: (§1) SH-EP1-human α4β2 (Eaton et al., 2003), SH-EP1-human α4β4 (Gentry et al., 2003) and SH-EP1-α6β3β4α5 (Grinevich at al., 2005) cell lines were obtained from Dr. Ron Lukas (Barrow Neurological Institute). The SH-EP1 cell lines, PC12, SH-SY5Y and TE671/RD cells were maintained in proliferative growth phase in Dulbecco's modified Eagle's medium (Invitrogen, Carlsbad, Calif.) with 10% horse serum (Invitrogen), 5% fetal bovine serum (HyClone, Logan Utah), 1 mM sodium pyruvate, 4 mM L-glutamine. For maintenance of stable transfectants, the α4β2 and α4β4 cell media was supplemented with 0.25 mg/mL zeocin and 0.13 mg/mL hygromycin B. Selection was maintained for the α6β3β4α5 cells with 0.25 mg/mL of zeocin, 0.13 mg/mL of hygromycin B, 0.4 mg/mL of geneticin, and 0.2 mg/mL of blasticidin.
(§2) Twenty-four to forty-eight hours prior to each experiment, cells were plated in 96 well black-walled, clear bottom plates (Corning, Corning, N.Y.) at 60-100,000 cells/well. On the day of the experiment, growth medium was gently removed, 200 μL 1×FLIPR Calcium 4 Assay reagent (Molecular Devices, Sunnyvale, Calif.) in assay buffer (20 mM HEPES, 7 mM TRIS base, 4 mM CaCl2, 5 mM D-glucose, 0.8 mM MgSO4, 5 mM KCl, 0.8 mM MgCl2, 120 mM N-methyl D-glucamine, 20 mM NaCl, pH 7.4 for SH-EP1-human α4β2 cells or 10 mM HEPES, 2.5 mM CaCl2, 5.6 mM D-glucose, 0.8 mM MgSO4, 5.3 mM KCl, 138 mM NaCl, pH 7.4 with TRIS-base for all other cell lines) was added to each well and plates were incubated at 37° C. for 1 hour (29° C. for the 29° C.-treated SH-EP1-human α4β2 cells). For inhibition studies, competitor compound (10 pM-10 μM) was added at the time of dye addition. The plates were removed from the incubator and allowed to equilibrate to room temperature. Plates were transferred to a FLIPR Tetra fluorometric imaging plate reader (Molecular Devices) for addition of compound and monitoring of fluorescence (excitation 485 nm, emission 525 nm). The amount of calcium flux was compared to both a positive (nicotine) and negative control (buffer alone). The positive control was defined as 100% response and the results of the test compounds were expressed as a percentage of the positive control. For inhibition studies, the agonist nicotine was used at concentrations of 1 μM for SH-EP1-human α4β2 and SH-EP1-human α4β4 cells, 10 μM for PC12 and SH-SY5Y cells, and 100 μM for TE671/RD cells.

[2] = molecular target: T1, human α4β2; assay: Competition binding to human α4β2 nicotinic receptors in membrane preparations ([3H]-nicotine); details: [3H]-nicotine competition, membranes
[3] = molecular target: T2, Human Ganglion (Homo sapiens, UniProt P30926+P32297); assay: Calcium flux functional assay, inhibition of nicotine response at human ganglionic receptor subtype; type: cell-based; details: read-out: Human Ganglion Ca Flux Imax
T2 construct: Human Ganglion Ca Flux IC50; Human Ganglion Ca Flux Imax
Protocol: as §1, §2

[4] = 29C/HS (29° C.-treated SH-EP1-human α4β2 cells), read-out: Human α4β2 Ca Flux IC50 [29C/HS]
[5] = 29C/HS (29° C.-treated SH-EP1-human α4β2 cells), read-out: Human α4β2 Ca Flux Imax [29C/HS]
[6] = 37C/LS, read-out: Human α4β2 Ca Flux IC50 [37C/LS]
[7] = 37C/LS, read-out: Human α4β2 Ca Flux Imax [37C/LS]
[8] = 29C/HS (29° C.-treated SH-EP1-human α4β2 cells)

Compound	IC50 [1, 4]	Emax [1, 5]	IC50 [1, 6]	Emax [1, 7]	Ki ([2]; Human α4β2 Ki)	Emax [3]	IC50 ([1]; Human α4β2 Ca Flux IC50 [37C/LS], 37C/LS)	Ki ([2]; read-out: Human α4β2 Ki)	Human α4β2 Ca Flux Imax [29C/HS] [1, 8]	Human α4β2 Ca Flux Imax [37C/LS] ([1]; 37C/LS)
CNC1C2CCC(C2)C12CCC2 (stereo not drawn)	1000 nM	99%	500 nM	97%	> 10000 nM	97%	–	–	–	–
C1CCN(C2C3CCC(C3)C23CCC3)C1 (stereo not drawn)	1400 nM	90%	–	96%	–	79%	59 nM	3800 nM	–	–
C1CN(C2C3CCC(C3)C23CCC3)C1 (stereo not drawn)	1400 nM	96%	740 nM	98%	–	89%	–	–	–	–
CN(C)C1C2CCC(C2)C12CCC2 (stereo not drawn)	1800 nM	98%	620 nM	98%	–	98%	–	2600 nM	–	–
CNC1C2CCC(C2)C12CC2 (stereo not drawn)	2100 nM	97%	570 nM	93%	540 nM	93%	–	–	–	–
CNC1(C)C2CCC(C2)C12CCCC2 (stereo not drawn)	1100 nM	99%	120 nM	100%	–	96%	–	> 10000 nM	–	–
CNC1(C)C2CCC(C2)C12CC2 (stereo not drawn)	380 nM	97%	120 nM	93%	–	98%	–	> 10000 nM	–	–
CNC1(C)C2CCC(CC2)C12CCCC2 (stereo not drawn)	–	–	400 nM	95%	–	92%	–	300 nM	–	–
CN[C@@]1(C)[C@@H]2CC[C@@H](C2)C12CCC2 (racemic)	–	98%	–	95%	–	93%	–	8700 nM	–	–
CN[C@@]1(C)[C@@H]2CC[C@@H](C2)C12CCC2 (single isomer, unassigned) [drawing 29]	–	–	–	–	–	–	–	> 10000 nM	98 % inh	96 % inh
CN[C@@]1(C)[C@@H]2CC[C@@H](C2)C12CCC2 (single isomer, unassigned) [drawing 30]	–	–	–	–	–	–	–	> 10000 nM	98 % inh	94 % inh
CNC1C2(CCC2)[C@H]2CC[C@]1(C)C2(C)C (stereo partly drawn) [drawing 31]	1300 nM	99%	498 nM	96%	–	97%	–	> 10000 nM	–	–
CNC1C2(CCC2)[C@H]2CC[C@]1(C)C2(C)C (stereo partly drawn) [drawing 32]	710 nM	–	430 nM	–	–	–	–	5600 nM	98 % inh	96 % inh
CNC1C2(CCC2)[C@@H]2CC[C@@]1(C)C2(C)C (stereo partly drawn) [drawing 33]	1000 nM	97%	600 nM	95%	–	95%	–	> 10000 nM	–	–
CNC1C2(CCC2)[C@@H]2CC[C@@]1(C)C2(C)C (stereo partly drawn) [drawing 34]	310 nM	–	270 nM	–	–	–	–	> 10000 nM	97 % inh	93 % inh
CN(C)C1C2(CCC2)[C@H]2CC[C@]1(C)C2(C)C (stereo partly drawn) [drawing 35]	540 nM	96%	520 nM	97%	–	98%	–	> 10000 nM	–	–
CN(C)C1C2(CCC2)[C@H]2CC[C@]1(C)C2(C)C (stereo partly drawn) [drawing 36]	140 nM	–	350 nM	–	–	–	–	> 10000 nM	96 % inh	95 % inh
CN(C)C1C2(CCC2)[C@@H]2CC[C@@]1(C)C2(C)C (stereo partly drawn) [drawing 37]	1100 nM	96%	280 nM	95%	–	95%	–	3200 nM	–	–
CN(C)C1C2(CCC2)[C@@H]2CC[C@@]1(C)C2(C)C (stereo partly drawn) [drawing 38]	740 nM	–	380 nM	–	–	–	–	2600 nM	95 % inh	95 % inh
